Source: ChEMBL document CHEMBL1157398, “Ymf 1029A-E, preussomerin analogues from the fresh-water-derived fungus YMF 1.01029” (2008)

Columns and labels:
Type in all cases: functional
[1] = test system: Bursaphelenchus xylophilus; test: Nematicidal activity against Bursaphelenchus xylophilus at 200 ug/ml after 24 hrs
[2] = test system: Bursaphelenchus xylophilus; test: Nematicidal activity against Bursaphelenchus xylophilus at 200 ug/ml after 48 hrs
[3] = test system: Bursaphelenchus xylophilus; test: Nematicidal activity against Bursaphelenchus xylophilus at 100 ug/ml after 24 hrs
[4] = test system: Bursaphelenchus xylophilus; test: Nematicidal activity against Bursaphelenchus xylophilus at 100 ug/ml after 48 hrs

Question: Which Activity [1] does the source give for `O=C1CCC(O)c2cccc(O)c21` (racemic) [4,8-DIHYDROXY-1-TETRALONE] here?
Answer: 53.4%

Question: What about the Activity [2] of the same molecule?
Answer: 58.3%

Question: And the Activity [3]?
Answer: 34.7%

Question: What about the Activity [4] of the same molecule?
Answer: 43.8%

Question: `Oc1ccc2c3c1[C@@H](O)[C@H]1O[C@H]1[C@]31Oc3cccc4c3[C@](O2)(O1)[C@H](O)C[C@@H]4O` was tested. Which Activity [1] did it give?
Answer: 54.8%

Question: What about the Activity [2] of the same molecule?
Answer: 62.3%

Question: And the Activity [3]?
Answer: 25.6%

Question: What about the Activity [4] of the same molecule?
Answer: 35.5%

Question: What does the source list for `O=C1c2c(O)ccc3c2[C@@]2(Oc4cccc5c4[C@](O3)(O2)[C@H](O)C[C@@H]5O)[C@@H]2O[C@H]12`?
Answer: Activity [1]: 52.3%; Activity [2]: 64.2%; Activity [3]: 27.8%; Activity [4]: 39.6%

Question: What does the source list for `O=C1CC[C@H](O)c2cc(O)cc(O)c21`?
Answer: Activity [1]: 51.2%; Activity [2]: 57.3%; Activity [3]: 23.7%; Activity [4]: 46.7%

Question: For `O=C1CC[C@]23Oc4ccc(O)c5c4[C@](Oc4cccc1c42)(O3)[C@@H]1O[C@@H]1[C@@H]5O`, which Activity [1] is on record?
Answer: 47.9%

Question: What about the Activity [2] of the same molecule?
Answer: 60.7%

Question: What about the Activity [3] of the same molecule?
Answer: 33.7%

Question: What about the Activity [4] of the same molecule?
Answer: 44.1%

Question: For `CO[C@@H]1CC(=O)c2cccc3c2[C@@]12Oc1ccc(O)c4c1[C@](O3)(O2)[C@@H]1O[C@@H]1[C@@H]4O` [PREUSSOMERIN C], which Activity [1] is on record?
Answer: 59.3%

Question: What about the Activity [2] of the same molecule?
Answer: 78.6%

Question: What about the Activity [3] of the same molecule?
Answer: 50.2%

Question: What about the Activity [4] of the same molecule?
Answer: 67.4%

Question: With `O=C1C=C[C@]23Oc4ccc(O)c5c4[C@](Oc4cccc1c42)(O3)[C@@H]1O[C@@H]1[C@@H]5O` [PREUSSOMERIN D] as the molecule, how does the Activity [1] read?
Answer: 60.4%

Question: And the Activity [2]?
Answer: 83.7%

Question: And the Activity [3]?
Answer: 53.8%

Question: What about the Activity [4] of the same molecule?
Answer: 76.5%

Question: For `O=C1C[C@@H](O)[C@]23Oc4ccc(O)c5c4[C@](Oc4cccc1c42)(O3)[C@@H]1O[C@@H]1[C@@H]5O`, which Activity [1] is on record?
Answer: 56.7%

Question: And the Activity [2]?
Answer: 70.3%

Question: And the Activity [3]?
Answer: 45.2%

Question: And the Activity [4]?
Answer: 66.4%
